# Data: PubChem BioAssay AID1745863
# Biological target: Cationic amino acid transporter 3 (Homo sapiens) (UniProt Q8WY07)
# Experiment: SLC7A3 cationic amino acid substrate potency, dose response, HEK293 JumpIn overexpressing cells, membrane potential dye (AID 1745863)
# Conditions: HEK293 JumpIn SLC7A3 OE, membrane potential dye FLIPR
# Sequence of Cationic amino acid transporter 3 (Homo sapiens) (Q8WY07 whole entry, looked up): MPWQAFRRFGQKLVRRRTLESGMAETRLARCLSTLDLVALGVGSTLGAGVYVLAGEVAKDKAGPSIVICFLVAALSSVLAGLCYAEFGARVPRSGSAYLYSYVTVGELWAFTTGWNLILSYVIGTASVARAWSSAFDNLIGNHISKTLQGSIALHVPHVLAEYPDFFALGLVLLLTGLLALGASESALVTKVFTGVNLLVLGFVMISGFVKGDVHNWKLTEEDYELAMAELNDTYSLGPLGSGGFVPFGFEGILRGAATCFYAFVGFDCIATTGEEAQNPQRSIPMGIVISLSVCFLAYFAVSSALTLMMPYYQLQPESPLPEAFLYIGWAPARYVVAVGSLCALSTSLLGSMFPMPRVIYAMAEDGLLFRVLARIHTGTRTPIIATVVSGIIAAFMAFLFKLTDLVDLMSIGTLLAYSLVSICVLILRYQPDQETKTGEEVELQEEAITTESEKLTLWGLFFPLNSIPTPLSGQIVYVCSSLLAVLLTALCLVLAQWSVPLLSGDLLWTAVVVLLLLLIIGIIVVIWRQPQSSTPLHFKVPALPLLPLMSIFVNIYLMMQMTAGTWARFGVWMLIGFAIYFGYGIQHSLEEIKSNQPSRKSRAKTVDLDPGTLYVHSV
row,EC50,SMILES
1,237 µM,NCCC[C@H](N)C(=O)O
2,283 µM,NC(N)=NCCC[C@H](N)C(=O)O
3,158 µM,NCCCC[C@H](N)C(=O)O
